Test results reported in ChEMBL document CHEMBL1201862, “PubChem BioAssay data set” (2004).
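A five-concentration, 48-hour dose response in 96-well plates underlies each endpoint, interpolated linearly between surrounding concentrations. The concentration for 50% growth inhibition is given as GI50.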 Calls of active or inactive are those of the source. No stated cut-off is given here; in the data, active = GI50 up to about 1.1 µM and inactive = higher. Square brackets hold non-standard residues; d marks the D form. Peptide text beside a SMILES is read from it. * marks the point of attachment. X26 = COC1=CC(=O)N(C(=O)[C@@H](O*)C(C)C)[C@H]1Cc1ccccc1; NMeV = CN[C@H](C(=O)O)C(C)C; Hexanoyl = CCCCCC(=O)*

Columns and labels:
Assay in all cases: inhibition of tumour cell growth, NCI panel, 48 h
[1] = test system: SW-620
[2] = test system: MDA-MB-231
[3] = test system: HCT-15
[4] = test system: OVCAR-5
[5] = test system: OVCAR-8
[6] = test system: MDA-MB-435
[7] = test system: NCI-H226
[8] = test system: M14
[9] = test system: HCT-116
[10] = test system: RPMI-8226
[11] = test system: MOLT-4
[12] = test system: CCRF-CEM
[13] = test system: NCI/ADR-RES
[14] = test system: SF-539
[15] = test system: HOP-92
[16] = test system: U-251
[17] = test system: SNB-19
[18] = test system: ACHN
[19] = test system: NCI-H522
[20] = test system: SR

Row | SMILES | GI50 [1] | GI50 [2] | GI50 [3] | GI50 [4] | GI50 [5] | GI50 [6] | GI50 [7] | GI50 [8] | GI50 [9] | GI50 [10] | GI50 [11] | GI50 [12] | GI50 [13] | GI50 [14] | GI50 [15] | GI50 [16] | GI50 [17] | GI50 [18] | GI50 [19] | GI50 [20]
1 | COc1ccc(Nc2nc3ccc(C(F)(F)F)cc3nc2C(=O)O)cc1 | 38.4 µM (inactive) | 66.4 µM (inactive) | 28.6 µM | 28.2 µM (inactive) | 30.8 µM (inactive) | 34.3 µM (inactive) | 20.6 µM (inactive) | 36.4 µM (inactive) | 34.7 µM (inactive) | 12.1 µM (inactive) | 29.5 µM (inactive) | 27 µM (inactive) | 29.9 µM (inactive) | 23.9 µM (inactive) | 29.6 µM (inactive) | 32.1 µM (inactive) |  |  |  | 
2 | Nc1ccccc1N/C=C\C(=O)C(Cl)(Cl)Cl | 16.7 µM (inactive) | 47.1 µM (inactive) | 19 µM | 20.1 µM (inactive) | 29 µM (inactive) | 14.8 µM (inactive) | 82.6 µM (inactive) | 14.7 µM (inactive) | 16.2 µM (inactive) | 14.3 µM (inactive) | 11 µM (inactive) | 4.26 µM (inactive) | 31 µM (inactive) | 28.4 µM (inactive) | 19 µM (inactive) | 25.6 µM (inactive) | 34.1 µM (inactive) | 16.3 µM (inactive) | 20.2 µM (inactive) | 
3 | COc1ccc(Nc2nnc(CCCCCCCCc3nnc(Nc4ccc(OC)cc4)o3)o2)cc1 | > 100 µM (inactive) | > 100 µM (inactive) | > 100 µM | > 100 µM (inactive) | > 100 µM (inactive) | > 100 µM (inactive) | > 100 µM (inactive) | > 100 µM (inactive) | > 100 µM (inactive) |  | > 100 µM (inactive) | > 100 µM (inactive) | > 100 µM (inactive) | > 100 µM (inactive) | > 100 µM (inactive) | > 100 µM (inactive) | > 100 µM (inactive) | > 100 µM (inactive) | 61.7 µM (inactive) | 
4 | O=[N+]([O-])C(=C1NCCN1)C(Cl)=C(Cl)Cl |  | > 100 µM (inactive) | > 100 µM | > 100 µM (inactive) | > 100 µM (inactive) | > 100 µM (inactive) | > 100 µM (inactive) | > 100 µM (inactive) | > 100 µM (inactive) | > 100 µM (inactive) | 49.5 µM (inactive) | 52.6 µM (inactive) | > 100 µM (inactive) | > 100 µM (inactive) |  | > 100 µM (inactive) | > 100 µM (inactive) | > 100 µM (inactive) | > 100 µM (inactive) | > 100 µM (inactive)
5 | COC(=O)[C@@H]1[C@H](O)[C@H](C)[C@H](O)[C@H](C)/C=C\C=C(\C)C(=O)Nc2c(C)c(OC(C)=O)c3c(c2O)C(=O)C(C)=C2OCOC(=C23)/C(C)=C/[C@@H](O)[C@H](O)[C@@H](C)[C@H]1OC(C)=O | 32.1 µM (inactive) | 92.9 µM (inactive) |  | > 100 µM (inactive) | 43.8 µM (inactive) |  | > 100 µM (inactive) | 38.1 µM (inactive) | 22.5 µM (inactive) | 15.5 µM (inactive) | 26.5 µM (inactive) | 44.9 µM (inactive) |  |  | 80.5 µM (inactive) | > 100 µM (inactive) | 21.5 µM (inactive) | > 100 µM (inactive) |  | 33 µM (inactive)
6 | CC1=NNC(=O)C1C1CC(c2c[nH]c3ccccc23)=NN(c2ccccc2)C1=O (configuration not stated) | 42.3 µM (inactive) | > 100 µM (inactive) | 37 µM | > 100 µM (inactive) | > 100 µM (inactive) | 55.1 µM (inactive) | > 100 µM (inactive) | 66.4 µM (inactive) | 34.7 µM (inactive) | 60.3 µM (inactive) | 34 µM (inactive) | 28.1 µM (inactive) | 83.9 µM (inactive) | 87.3 µM (inactive) | > 100 µM (inactive) | 87.5 µM (inactive) | > 100 µM (inactive) | > 100 µM (inactive) | 19.8 µM (inactive) | 
7 | O=C(COc1ccc(OCC(=O)N2C(=O)CC/C2=N\c2ccc(Cl)cc2)cc1)N1C(=O)CS/C1=N\c1ccc(Cl)cc1 | > 100 µM (inactive) | 26.9 µM (inactive) | > 100 µM | > 100 µM (inactive) | 47.5 µM (inactive) | > 100 µM (inactive) | > 100 µM (inactive) | 89.7 µM (inactive) | 93.8 µM (inactive) | 46.1 µM (inactive) |  |  | > 100 µM (inactive) |  | > 100 µM (inactive) | 29.5 µM (inactive) | 63.2 µM (inactive) | 49.8 µM (inactive) | 63.4 µM (inactive) | 
8 | O=C1C=CC(=O)c2c1ccc1c3ccccc3n(CCCCCCCCn3c4ccccc4c4ccc5c(c43)C(=O)C=CC5=O)c21 | > 100 µM (inactive) | > 100 µM (inactive) | > 100 µM | > 100 µM (inactive) | > 100 µM (inactive) | > 100 µM (inactive) | > 100 µM (inactive) | > 100 µM (inactive) | > 100 µM (inactive) | > 100 µM (inactive) | 85.7 µM (inactive) | > 100 µM (inactive) | > 100 µM (inactive) | > 100 µM (inactive) |  | > 100 µM (inactive) | > 100 µM (inactive) | > 100 µM (inactive) | > 100 µM (inactive) | 
9 | CN(C)c1ccc(/C=c2/c3ccccc3n3c2cc(C24CC5CC(CC(C5)C2)C4)[n+]3C)cc1 | 0.148 µM (active) | 0.281 µM (active) | 0.446 µM | 0.409 µM (active) | 0.129 µM (active) | 0.176 µM (active) | 0.396 µM (active) | 0.32 µM (active) | 0.0828 µM (active) | 0.053 µM (active) | 0.998 µM (active) | 0.117 µM (active) | 1.52 µM (inactive) | 0.123 µM (active) | 0.366 µM (active) | 0.0664 µM (active) | 0.266 µM (active) | 0.23 µM (active) | 0.0923 µM (active) | 
10 | O=C1N/C(=N/N=C/C(O)C(O)C(O)C(O)CO)N/C1=C\c1ccco1 (configuration not stated) | > 100 µM (inactive) | > 100 µM (inactive) | > 100 µM | > 100 µM (inactive) | > 100 µM (inactive) | > 100 µM (inactive) | > 100 µM (inactive) | > 100 µM (inactive) | > 100 µM (inactive) | > 100 µM (inactive) | > 100 µM (inactive) | 48.4 µM (inactive) | > 100 µM (inactive) | > 100 µM (inactive) | > 100 µM (inactive) | 89.7 µM (inactive) | > 100 µM (inactive) | > 100 µM (inactive) | 81.7 µM (inactive) | 
11 | C/C=C(\C)CC/C=C/CO[Si](C)(C)C(C)(C)C | > 100 µM (inactive) | > 100 µM (inactive) | > 100 µM | > 100 µM (inactive) | > 100 µM (inactive) | > 100 µM (inactive) | > 100 µM (inactive) | > 100 µM (inactive) | 46.8 µM (inactive) | > 100 µM (inactive) | 39 µM (inactive) | 24.7 µM (inactive) | > 100 µM (inactive) | > 100 µM (inactive) |  |  | > 100 µM (inactive) | > 100 µM (inactive) | > 100 µM (inactive) | 28.9 µM (inactive)
12 | CC(C)CCC[C@@H](C)[C@H]1CCC2C3CC=C4C[C@@H](Oc5c6ccccc6nc6ccccc56)CCC4C3CCC21 (some centres not stated) | > 50 µM (inactive) | 39.9 µM (inactive) | > 50 µM | > 50 µM (inactive) | > 50 µM (inactive) | > 50 µM (inactive) | > 50 µM (inactive) | > 50 µM (inactive) | > 50 µM (inactive) |  |  | > 50 µM (inactive) | > 50 µM (inactive) | > 50 µM (inactive) | > 50 µM (inactive) | > 50 µM (inactive) | > 50 µM (inactive) | > 50 µM (inactive) | 36.4 µM (inactive) | 
13 | CCCCCC(=O)N[C@H](C(=O)N[C@H](C(=O)N(C)[C@H](C(=O)N1CCC[C@H]1C(=O)N1CCC[C@H]1C(=O)O[C@H](C(=O)N1C(=O)C=C(OC)[C@@H]1Cc1ccccc1)C(C)C)C(C)C)C(C)C)C(C)C (Hexanoyl-VV[NMeV]PP-X26) | > 100 µM (inactive) | 34.2 µM (inactive) | > 100 µM | 93.5 µM (inactive) | > 100 µM (inactive) | 36.2 µM (inactive) | > 100 µM (inactive) |  | 48.2 µM (inactive) | 84.1 µM (inactive) | 63 µM (inactive) | 48.6 µM (inactive) | > 100 µM (inactive) | 36.9 µM (inactive) | 36.2 µM (inactive) | 43.8 µM (inactive) |  | > 100 µM (inactive) | > 100 µM (inactive) | 
14 | CC(=O)OCC1OC(OC2CC3C(C)(C)C(O)CC[C@]3(C)C3CCC45CC4(CCC5[C@@H](C)CC(O)C(O)C(C)(C)O)[C@]23C)C(O)C(O)C1O (some centres not stated) | > 10 µM (inactive) | > 10 µM (inactive) | > 10 µM | > 10 µM (inactive) | > 10 µM (inactive) | > 10 µM (inactive) | > 10 µM (inactive) | > 10 µM (inactive) | > 10 µM (inactive) | > 10 µM (inactive) | > 10 µM (inactive) | > 10 µM (inactive) | > 10 µM (inactive) | > 10 µM (inactive) | > 10 µM (inactive) | > 10 µM (inactive) | > 10 µM (inactive) | > 10 µM (inactive) | > 10 µM (inactive) | 
15 | O=C(NCCCCN(CCCNC(=O)C(F)(F)F)Cc1ccccc1)C(F)(F)F | > 100 µM (inactive) | > 100 µM (inactive) | > 100 µM | > 100 µM (inactive) | > 100 µM (inactive) | > 100 µM (inactive) | 35.4 µM (inactive) | > 100 µM (inactive) | > 100 µM (inactive) | > 100 µM (inactive) | > 100 µM (inactive) | > 100 µM (inactive) | > 100 µM (inactive) | > 100 µM (inactive) | > 100 µM (inactive) | > 100 µM (inactive) | > 100 µM (inactive) | > 100 µM (inactive) | > 100 µM (inactive) | 
